Test results taken from ChEMBL document CHEMBL1156521, “Three-dimensional structure of the EphB2 receptor in complex with an antagonistic peptide reveals a novel mode of inhibition” (J Biol Chem, 2007).
Residues, ends and D or L forms follow the SMILES beside them.

These molecules were tested against T1, Ephrin type-B receptor 2 (Homo sapiens, UniProt P29323) (assay: Binding affinity at human EphB2 receptor by isothermal titration calorimetry).
T1 sequence (P29323 whole entry): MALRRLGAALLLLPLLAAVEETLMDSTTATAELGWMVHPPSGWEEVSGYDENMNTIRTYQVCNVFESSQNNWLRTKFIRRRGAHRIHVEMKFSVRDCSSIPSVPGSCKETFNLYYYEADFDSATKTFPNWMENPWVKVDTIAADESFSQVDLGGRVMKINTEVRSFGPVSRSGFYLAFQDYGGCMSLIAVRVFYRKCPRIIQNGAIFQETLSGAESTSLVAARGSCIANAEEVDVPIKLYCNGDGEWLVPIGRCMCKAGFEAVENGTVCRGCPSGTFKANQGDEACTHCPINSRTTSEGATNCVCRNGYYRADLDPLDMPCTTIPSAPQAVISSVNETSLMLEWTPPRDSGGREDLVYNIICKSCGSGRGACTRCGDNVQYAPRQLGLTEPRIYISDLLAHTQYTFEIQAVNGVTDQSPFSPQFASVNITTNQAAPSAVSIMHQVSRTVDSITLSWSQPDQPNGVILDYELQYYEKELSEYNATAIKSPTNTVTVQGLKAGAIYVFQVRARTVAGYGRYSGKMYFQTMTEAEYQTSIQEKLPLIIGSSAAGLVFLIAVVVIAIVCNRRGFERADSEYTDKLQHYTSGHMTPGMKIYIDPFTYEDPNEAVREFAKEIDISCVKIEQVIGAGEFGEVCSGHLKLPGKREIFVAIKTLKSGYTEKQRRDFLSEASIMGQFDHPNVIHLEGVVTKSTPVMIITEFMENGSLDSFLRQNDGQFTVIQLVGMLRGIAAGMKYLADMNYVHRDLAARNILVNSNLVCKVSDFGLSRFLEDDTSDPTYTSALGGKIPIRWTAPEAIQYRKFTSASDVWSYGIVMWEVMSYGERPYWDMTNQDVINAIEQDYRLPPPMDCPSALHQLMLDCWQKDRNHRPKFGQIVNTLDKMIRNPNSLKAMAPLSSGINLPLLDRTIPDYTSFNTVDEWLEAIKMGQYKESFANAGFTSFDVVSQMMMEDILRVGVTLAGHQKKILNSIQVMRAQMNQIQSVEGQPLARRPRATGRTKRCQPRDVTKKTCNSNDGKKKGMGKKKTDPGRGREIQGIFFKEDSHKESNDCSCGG

Structure (SMILES)	Kd [µM]
CC[C@H](C)[C@H](NC(=O)[C@H](Cc1c[nH]c2ccccc12)NC(=O)[C@H](CCC(N)=O)NC(=O)[C@H](CC(N)=O)NC(=O)[C@@H](N)CO)C(=O)N[C@@H](CC(C)C)C(=O)N1CCC[C@H]1C(=O)N[C@@H](CCCN=C(N)N)C(=O)N[C@@H](CC(C)C)C(=O)N1CCC[C@H]1C(=O)N[C@@H](CCC(N)=O)C(=O)N[C@@H](Cc1cnc[nH]1)C(=O)O (H-SNQWILPRLPQH-OH)	> 50
CC[C@H](C)[C@H](NC(=O)[C@@H]1CCCN1C(=O)CNC(=O)[C@H](CC(N)=O)NC(=O)[C@@H]1CCCN1C(=O)[C@H](CO)NC(=O)[C@H](Cc1ccccc1)NC(=O)[C@H](CC(C)C)NC(=O)[C@H](Cc1ccc(O)cc1)NC(=O)[C@H](CC(N)=O)NC(=O)[C@@H](N)[C@H](C)O)C(=O)N[C@@H](C)C(=O)N[C@@H](CCCN=C(N)N)C(=O)N[C@@H](C)C(=O)N[C@@H](Cc1c[nH]c2ccccc12)C(=O)O	> 50
CC[C@H](C)[C@H](NC(=O)[C@H](Cc1c[nH]c2ccccc12)NC(=O)[C@H](CCC(=O)O)NC(=O)[C@H](CC(N)=O)NC(=O)[C@@H](N)CO)C(=O)N[C@@H](CCC(N)=O)C(=O)N1CCC[C@H]1C(=O)N[C@@H](Cc1cnc[nH]1)C(=O)N[C@@H](CC(C)C)C(=O)N1CCC[C@H]1C(=O)N[C@@H](CCC(N)=O)C(=O)N[C@@H](Cc1cnc[nH]1)C(=O)O (H-SNEWIQPHLPQH-OH)	> 50
CC[C@H](C)[C@H](NC(=O)[C@H](Cc1c[nH]c2ccccc12)NC(=O)[C@H](CCC(=O)O)NC(=O)[C@H](CC(N)=O)NC(=O)[C@@H](N)CO)C(=O)N[C@@H](CCC(N)=O)C(=O)N1CCC[C@H]1C(=O)N[C@@H](C)C(=O)N[C@@H](CC(C)C)C(=O)N1CCC[C@H]1C(=O)N[C@@H](CCC(N)=O)C(=O)N[C@@H](Cc1cnc[nH]1)C(=O)O (H-SNEWIQPALPQH-OH)	> 50

Other lines, results leading:

Kd [µM]	Structure (SMILES)
> 50	CC[C@H](C)[C@H](NC(=O)[C@H](Cc1c[nH]c2ccccc12)NC(=O)[C@H](CCC(N)=O)NC(=O)[C@H](CC(N)=O)NC(=O)[C@@H](N)CO)C(=O)N[C@@H](CCC(N)=O)C(=O)N1CCC[C@H]1C(=O)N[C@@H](CCCN=C(N)N)C(=O)N[C@@H](CC(C)C)C(=O)N1CCC[C@H]1C(=O)N[C@@H](CCC(N)=O)C(=O)N[C@@H](Cc1cnc[nH]1)C(=O)O (H-SNQWIQPRLPQH-OH)
> 50	CC[C@H](C)[C@H](NC(=O)[C@H](Cc1c[nH]c2ccccc12)NC(=O)[C@H](CCC(N)=O)NC(=O)[C@H](CC(N)=O)NC(=O)[C@@H](N)CO)C(=O)NCC(=O)N1CCC[C@H]1C(=O)N[C@@H](C)C(=O)N[C@@H](CC(C)C)C(=O)N1CCC[C@H]1C(=O)N[C@@H](CCC(N)=O)C(=O)N[C@@H](Cc1cnc[nH]1)C(=O)O (H-SNQWIGPALPQH-OH)
> 50	CC[C@H](C)[C@H](NC(=O)[C@H](Cc1c[nH]c2ccccc12)NC(=O)[C@H](CCC(N)=O)NC(=O)[C@H](CC(N)=O)NC(=O)[C@@H](N)CO)C(=O)N[C@@H](CO)C(=O)N1CCC[C@H]1C(=O)N[C@@H](CCCNC(=N)N)C(=O)N[C@@H](CC(C)C)C(=O)N1CCC[C@H]1C(=O)N[C@@H](CCC(N)=O)C(=O)N[C@@H](Cc1cnc[nH]1)C(=O)O (H-SNQWISPRLPQH-OH)

What follows are molecules tested against T2, Ephrin type-B receptor 2 (Mus musculus, UniProt P54763) (assay: Binding affinity at mouse EphB2 receptor by ELISA).
T2 sequence (P54763 whole entry): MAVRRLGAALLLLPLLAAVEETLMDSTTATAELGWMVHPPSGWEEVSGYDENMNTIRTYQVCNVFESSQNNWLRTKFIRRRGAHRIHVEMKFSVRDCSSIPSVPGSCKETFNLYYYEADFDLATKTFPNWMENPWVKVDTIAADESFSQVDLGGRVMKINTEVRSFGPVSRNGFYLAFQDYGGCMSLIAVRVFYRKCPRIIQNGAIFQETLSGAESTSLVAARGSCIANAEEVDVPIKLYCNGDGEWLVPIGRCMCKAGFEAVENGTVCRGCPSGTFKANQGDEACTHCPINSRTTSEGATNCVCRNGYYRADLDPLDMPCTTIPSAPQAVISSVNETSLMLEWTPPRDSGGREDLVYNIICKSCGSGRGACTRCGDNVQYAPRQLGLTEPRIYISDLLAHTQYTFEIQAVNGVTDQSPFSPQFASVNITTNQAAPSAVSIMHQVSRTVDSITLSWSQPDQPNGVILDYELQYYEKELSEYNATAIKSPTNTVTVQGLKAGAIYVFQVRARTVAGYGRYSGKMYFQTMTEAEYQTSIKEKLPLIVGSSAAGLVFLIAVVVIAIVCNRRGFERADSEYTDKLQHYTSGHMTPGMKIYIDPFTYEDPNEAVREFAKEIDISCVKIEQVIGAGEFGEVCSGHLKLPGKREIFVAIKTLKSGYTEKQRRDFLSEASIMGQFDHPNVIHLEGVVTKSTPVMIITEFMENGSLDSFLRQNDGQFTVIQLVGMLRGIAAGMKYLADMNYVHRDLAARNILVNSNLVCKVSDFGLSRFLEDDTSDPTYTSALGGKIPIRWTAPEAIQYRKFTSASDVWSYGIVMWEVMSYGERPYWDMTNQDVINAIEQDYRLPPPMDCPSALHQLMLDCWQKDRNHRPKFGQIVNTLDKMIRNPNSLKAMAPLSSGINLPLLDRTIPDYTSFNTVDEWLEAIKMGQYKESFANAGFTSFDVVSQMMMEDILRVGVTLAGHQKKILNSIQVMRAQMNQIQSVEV

Structure (SMILES)	IC50 [µM]
CC[C@H](C)[C@H](NC(=O)[C@H](Cc1c[nH]c2ccccc12)NC(=O)[C@H](CCC(=O)O)NC(=O)[C@H](CC(N)=O)NC(=O)[C@@H](N)CO)C(=O)N[C@@H](CCC(N)=O)C(=O)N1CCC[C@H]1C(=O)N[C@@H](CCCNC(=N)N)C(=O)N[C@@H](CC(C)C)C(=O)N1CCC[C@H]1C(=O)N[C@@H](CCC(N)=O)C(=O)N[C@@H](Cc1cnc[nH]1)C(=O)O	15
